Experimental data taken from US20050043331A1, “Substituted 3-(2,5-disubstituted)pyridyl-4-aryl pyrroles for treating inflammatory diseases” (priority 2002, published 2005).

How the values were obtained:
TNF-α [1] = experiment: In-vitro whole cell assay for TNF-α inhibition (LPS-stimulated PBMC, ELISA); format: cell-based; conditions: TNF-α by ELISA
Outline: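 Human PBMC from heparinized venous blood (Ficoll-Hypaque), 1.67×10^6/mL in low-endotoxin RPMI/1% FCS, preincubated with compound 1 h at 37° C, then stimulated with LPS (200 ng/mL stock) overnight at 37° C. Duplicate wells. Supernatant TNF-α quantified by ELISA.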

P38 [2] = target: T1, P38 (Homo sapiens, UniProt Q16539); experiment: P38 cell, 1 μM LJ; format: cell-based; design: unit not given here
T1 sequence (Q16539 whole entry): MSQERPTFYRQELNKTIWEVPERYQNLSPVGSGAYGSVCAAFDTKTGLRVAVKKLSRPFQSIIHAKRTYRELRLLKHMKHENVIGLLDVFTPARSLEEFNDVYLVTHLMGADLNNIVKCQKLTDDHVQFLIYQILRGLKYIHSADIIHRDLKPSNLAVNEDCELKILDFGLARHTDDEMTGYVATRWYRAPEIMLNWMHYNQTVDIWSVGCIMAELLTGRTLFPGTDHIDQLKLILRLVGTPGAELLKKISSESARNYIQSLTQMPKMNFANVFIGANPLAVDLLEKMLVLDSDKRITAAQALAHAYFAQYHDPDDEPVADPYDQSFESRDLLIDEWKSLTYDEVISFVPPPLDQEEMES

P38 [3] = target: T1, P38; experiment: p38 inhibition in-vitro enzyme assay; format: biochemical; conditions: recombinant 6×His-p38
Procedure: Purified recombinant 6×His-p38 and GST-ATF2 (both expressed in Baculovirus) were served as enzyme and substrate in our p38 inhibition assay. The enzyme reaction was performed in the anti-GST antibody pre-coated 96-well ELISA plate.
A 96-well ELISA plate was coated with 100 μl/well of anti-GST antibody (from Amersham) at a concentration of […] and incubated overnight at 4° C. The ELISA plate was blocked with 100 μl/well of 1% BSA at 25° C. for at least 2 hours, then the plate was washed with 300 μl PBST. The enzyme reaction was started by adding 10 μl of p38 recombinant protein (0.05 nM in final concentration), 10 μl of compound in desired concentration, 10 μl of substrates (670 μM ATP, 200 nM GST-ATF2 in final concentration) and 70 μl of reaction buffer (50 mM HEPES, pH 7.4, 100 mM NaCl, 10 mM MgCl2) and the mixture was incubated at 37° C. for 30 min. Washing the reaction plate with 3×300 μl/well of PBST stopped the enzyme reaction. Detection of the phosphorylated ATF2 substrate was done by the addition of 100 μl of anti-Pi-ATF2 antibody (from Cell Signaling) at a 1:200 dilution. The mixture was incubated at 25° C. for 30 min. A solution of 100 μl of HRP-conjugated goat anti-rabbit antibody (from Pierce) at a 1:250 dilution was added and the mixture and incubated at 25° C. for 30 min. The plate was washed with 6×300 μI PBST and 100 μl of OPD substrate (from Sigma) was then added. The mixture was incubated at 25° C. for 10 min. before adding 100 μl of 3 N H2SO4. The plate was read at 490 nm.
The % inhibition of each test compound was calculated by the following formula: % inhibition=[1−(sample−BKG)/(CTRL−BKG)]×100. The IC50 of each test compound was determined by a triplicate-8 point dose titration curve by Prism GraphPad program. […]

TNF-α [4] = experiment: In vivo rodent assay for inhibition of LPS-induced TNF-α production; design: species or system Mice (BALB/cJ females); conditions: Mus musculus, po, 0.5 h, 10 mg/kg oral, 0.5 h, read-out: Mouse 10 mg/kg % inhib 0.5 h
Outline: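 Female BALB/cJ mice or male Lewis rats, fasted 30 min, received compound orally (mg/kg) at various times before intraperitoneal LPS at 1 mg/kg. Blood was collected by cardiac puncture 1 h after LPS, and serum TNF-α was quantified by species-specific ELISA.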

| Structure (SMILES) | IC50 (TNF-α [1]) | P38 cell 1 μM LJ (P38 [2]) | IC50 (P38 [3]) | inhibition in vivo at 10 mg/kg (TNF-α [4]) |
| --- | --- | --- | --- | --- |
| CCOC(=O)c1c(-c2cc(F)cc(F)c2)c(-c2ccncc2)cn1C [Cpd 64] | 33 nM | 7 | 8690 nM | -31% |
| CCCc1c(-c2ccnc(N[C@@H](C)COC)n2)c(-c2ccc(F)cc2)cn1CCN1CCOCC1 [Cpd 65] | 1 nM | 102 | 21 nM | -1% |
| C[C@H](Nc1nccc(-c2cn(CCN3CCOCC3)cc2-c2ccc(F)cc2)n1)c1ccccc1 [Cpd 68] | 4 nM | 83 | 7 nM | -21% |
| CCOC(=O)c1[nH]cc(-c2ccncc2)c1-c1ccc(F)c(F)c1 [Cpd 69] | 560 nM | 17 | > 10000 nM | -32% |
| CCOC(=O)c1c(-c2ccc(F)c(F)c2)c(-c2ccncc2)c(Br)n1C [Cpd 70] | 2720 nM | 12 | > 10000 nM | -36% |
| CCOC(=O)c1[nH]cc(-c2ccncc2)c1-c1ccccc1 [Cpd 71] | 149 nM | 9 | 572 nM | 58% |
| Fc1ccc(-c2c[nH]c(CNCc3ccncc3)c2-c2ccncc2)cc1 [Cpd 74] | 74 nM | 25 | 400 nM | 47% |
| Cn1cc(-c2ccc(F)cc2)c(-c2ccncc2)c1N1CCNCC1 [Cpd 78] | 15 nM | 61 | 2020 nM | 75% |
| CCOC(=O)c1c(-c2ccc(C)cc2)c(-c2ccncc2)c(N2CCNCC2)n1C [Cpd 83] | 60 nM | 53 | 3940 nM | 79% |
| COC(=O)c1c(-c2ccc(F)cc2)c(-c2ccncc2)c(N2CCc3ccccc3C2)n1C [Cpd 93] | 66 nM | 20 | > 10000 nM | 32% |
| CCOC(=O)c1c(-c2ccc(F)cc2)c(-c2ccncc2)c(N2CCNCC2)n1C [Cpd 96] | 16 nM | 22 | > 10000 nM | 79% |
| CNC(=O)c1c(-c2ccc(F)cc2)c(-c2ccncc2)c(N2CCNCC2)n1C [Cpd 99] | 106 nM | 7 | > 10000 nM | -7% |
| CCOC(=O)c1c(-c2cc(F)cc(F)c2)c(-c2ccncc2)c(N2CCNCC2)n1C [Cpd 100] | 93 nM | 12 | > 10000 nM | 75% |
| COC(=O)c1c(-c2ccc(F)cc2)c(-c2ccncc2)c(Cc2ccc(N(C)C)cc2)n1C [Cpd 102] | 118 nM | 12 | > 10000 nM | 15% |
| COC(=O)c1c(-c2ccc(F)cc2)c(-c2ccncc2)c(NCc2ccncc2)n1C [Cpd 103] | 145 nM | 20 | > 10000 nM | -22% |
| CCOC(=O)c1c(-c2cccc(C(F)(F)F)c2)c(-c2ccncc2)c(N2CCNCC2)n1C [Cpd 104] | 21 nM | 11 | > 10000 nM | 83% |
| COC(=O)c1c(-c2cccc(F)c2)c(-c2ccncc2)c(N2CCNCC2)n1C [Cpd 105] | 69 nM | 31 | > 10000 nM | 49% |
| CCC(=O)c1c(-c2ccc(F)cc2)c(-c2ccncc2)c(N2CCNCC2)n1C [Cpd 106] | 67 nM | 21 | > 10000 nM | 32% |
